Results: US20120134978A1, “Cross-Linking of Superoxide Dismutase Monomers” (Brandeis University, priority 2009, published 2012)
Entries after “also recorded” stand apart in the source; their conditions may differ. Values belong to the compound of their own block, whether it stands above or below them.

What was measured:
wtSOD1 [1] = target: T1, wtSOD1 (Homo sapiens, UniProt P00441); test: Cross-linking and western blots (SDS-PAGE) of SOD1; format: biochemical; settings: for SOD1 dimer formation by cross-linking (western blot): 1:1 or 1:3 molar ratio SOD1 to cross-linker, 1 hour, room temperature
T1 construct: purchased Sigma-Aldrich (St. Louis, Mo.)
T1 sequence (P00441 2-154 limits assumed): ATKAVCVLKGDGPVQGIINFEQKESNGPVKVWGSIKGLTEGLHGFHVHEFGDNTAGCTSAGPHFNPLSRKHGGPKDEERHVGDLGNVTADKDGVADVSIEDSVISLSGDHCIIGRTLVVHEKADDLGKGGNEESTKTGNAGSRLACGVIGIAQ

G93A SOD1 [2] = target: T2, G93A SOD1 (Homo sapiens, UniProt P00441, G94A); test: LC-FTMS of cross-linked SOD1 (stoichiometry of cross-linker binding); settings: 1:1 molar ratio
T2 construct: made in house; host or cells: S. cerevisiae EGy118ΔSOD1, vector YEp-351
T2 sequence (P00441 2-154 G94A limits assumed): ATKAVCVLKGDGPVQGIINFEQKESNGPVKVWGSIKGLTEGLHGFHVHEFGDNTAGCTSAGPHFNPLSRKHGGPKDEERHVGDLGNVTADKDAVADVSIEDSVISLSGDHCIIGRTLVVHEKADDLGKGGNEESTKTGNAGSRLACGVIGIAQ
Protocol: G93A was cross-linked using DMTE or BMOE as previously described at a 1:1 molar ratio (5 μM:5 μM). After one hour, 3% acetonitrile and 1% formic acid was added to the sample and spun at 14,000 RPM for 10 minutes to pellet any precipitated protein. The cross-linked sample was placed in an autosampler and 1 μL of cross-linked sample was aspirated into either a Proxeon 1D HPLC or Eksigent 2D HPLC with the following gradient: 3-50% B for 30 minutes, 50-95% B for 7 minutes, 95% B for 5 minutes, 95-3% B for 1 minute, and 3% B for 15 minutes. Buffer A is HPLC water with 0.1% formic acid and buffer B is 100% acetonitrile, 0.1% formic acid. After liquid chromatography, the sample was ionized using nanospray ionization and analyzed using a […] Bruker Daltonics FTMS. The FTMS was controlled using Apex control software and source parameters were controlled using the Apollo II software. Spectra (monomeric and dimeric G93A) were collected using a skimmer 1 voltage of 35-40V, whereas funnel skimmer dissociation was used to fragment the cross-linked G93A by increasing skimmer one voltage 140 volts. LC-FTMS data of cross-linked and non-cross-linked G93A were analyzed using Data Analysis software (Bruker Daltonics). These experiments were repeated in triplicate. […]

wtSOD1 [3] = target: T1, wtSOD1; test: SOD1 activity assay (NBT gel based); format: biochemical; settings: ~42 μM SOD1, 80 μM copper and zinc and/or 42 μM cross-linker
Protocol: (§1) The DTME cross-linked samples were divided in half, where one half was incubated with 10 mM TCEP and one was not, then analyzed on a 12.5% polyacrylamide gel. The gel was stained using a solution containing 50 mM potassium phosphate, pH 7.8, 1 tablet NBT (10 mg/tablet), and 0.1 mg/mL riboflavin for 45 minutes in the dark. After the 45 minute incubation 1 μL/mL TEMED was added and the gel was exposed to light for 2 minutes. Superoxide radicals create insoluble blue formazon from NBT. SOD1 acitivity is seen as a colorless band since SOD1 scavenges the superoxide, thus inhibiting the blue color formation. Repeated in triplicate.

G85R SOD1 [4] = target: T3, G85R SOD1 (Homo sapiens, UniProt P00441, G86R); test: SOD1 activity assay (NBT gel based); format: biochemical; settings: ~42 μM G85R; for SOD1 activity on addition of the substance: excess copper, zinc or cross-linker
T3 construct: made in house; host or cells: S. cerevisiae EGy118ΔSOD1, vector YEp-351
T3 sequence (P00441 2-154 G86R limits assumed): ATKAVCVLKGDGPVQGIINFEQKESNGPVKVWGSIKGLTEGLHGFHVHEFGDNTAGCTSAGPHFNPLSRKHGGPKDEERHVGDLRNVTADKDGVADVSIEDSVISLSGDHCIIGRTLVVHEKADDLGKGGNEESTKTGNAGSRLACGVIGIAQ
Protocol: as §1

G93A SOD1 [5] = target: T2, G93A SOD1; test: SOD1 activity assay (NBT gel based); format: biochemical; settings: ~42 μM SOD1, 80 μM copper and zinc and/or 42 μM cross-linker
Protocol: as §1

G85R SOD1 [6] = target: T3, G85R SOD1; test: Peptide sequencing using LC-FTMS (bottom-up analysis, site of cross-linking); format: binding; settings: 1:1 molar ratio, Glu-C digest
wtSOD1 [7] = target: T1, wtSOD1; test: MALDI-TOF MS of cross-linked SOD1; format: biochemical; settings: 1:1 molar ratio
human = settings: LD50 values in human; cited from earlier work
G85R SOD1 [8] = target: T3, G85R SOD1; test: Thermofluorescence stability assay (SYPRO Orange); format: binding; settings: 10 μM G85R, 20 μM copper, 20 μM zinc
G93A SOD1 [9] = target: T2, G93A SOD1; test: Thermofluorescence stability assay (SYPRO Orange); format: binding; settings: 10 μM G93A, 20 μM copper, 20 μM zinc

Compound: O=C1C=CC(=O)N1CCOCCOCCN1C(=O)C=CC1=O [BM(PEG)2, 1,8-bis-Maleimidodiethyleneglycol]
- SOD1 dimer formation by cross-linking (western blot) (wtSOD1 [1]): resulted in the stabilization of SOD1 dimer

Compound: O=C1C=CC(=O)N1CCCCN1C(=O)C=CC1=O [BMB, 1,4bismaleimidobutane]
- SOD1 dimer formation by cross-linking (western blot) (wtSOD1 [1]): resulted in the stabilization of SOD1 dimer

Compound: O=C1C=CC(=O)N1CC(O)C(O)CN1C(=O)C=CC1=O (stereo not shown) [BMDB, 1,4-bismaleimidyl-2,3-dihydroxybutane]
- SOD1 dimer formation by cross-linking (western blot) (wtSOD1 [1]): resulted in the stabilization of SOD1 dimer

Compound: O=C1C=CC(=O)N1CCN1C(=O)C=CC1=O [BMOE, bis(maleimido)ethane]
- stoichiometry of cross-linker binding (G93A SOD1 [2]): consistent with the molecular weight of G93A plus one cross-linker
- SOD1 activity on addition of the substance (wtSOD1 [3]): unchanged
- SOD1 activity on addition of the substance (G85R SOD1 [4]): increases
- SOD1 activity on addition of the substance (G93A SOD1 [5]): unaffected
- cross-reactivity with other SOD1 cysteine residues Cys6, Cys57 and Cys146 (G85R SOD1 [6]): relatively low
- site of cross-linking (G85R SOD1 [6]): mainly through Cys111

- SOD1 activity on addition of the substance (G85R SOD1 [4]): increases
Compound: O=C1C=CC(=O)N1CCSSCCN1C(=O)C=CC1=O [DTME, Dithio-bismaleimidoethane]
- stoichiometry of cross-linker binding (G93A SOD1 [2]): one equivalent of cross-linker produced one equivalent of dimer; also recorded: consistent with the molecular weight of G93A plus one cross-linker
- state of cross-linked SOD1 dimer in presence of reducing agent (DTT) (wtSOD1 [1]; 1:1 molar ratio, SDS PAGE with reducing agent): only monomer was observed; also recorded: returning the dimer to its monomeric form; also recorded: became a monomer in the presence of reducing agent
- SOD1 dimer formation by cross-linking (western blot) (wtSOD1 [1]): resulted in the stabilization of SOD1 dimer; also recorded: resulted in dimeric SOD1
- SOD1 activity in the presence of copper, zinc and cross-linker (G85R SOD1 [4]; 80 μM copper and zinc and 42 μM cross-linker): even larger increase in activity; also recorded: largest increase in activity
- dimer observed in MALDI-TOF spectra of cross-linked SOD1 (wtSOD1 [7]): The majority of the species observed is dimeric wtSOD1

Compound: C=CS(=O)(=O)CCCCCCS(=O)(=O)C=C [HBVS, 1,6-Hexanol-bis-vinylsulfone]
- SOD1 dimer formation by cross-linking (western blot) (wtSOD1 [1]): did not result in formation of dimeric SOD1; also recorded: did not appear to cross-link SOD1

Compound: O=C(CI)NCCNC(=O)CI [N,N′-ethylenebis-(iodoacetamide)]
- LD50 (human): 9 mg/kg

- relative cross-linking efficiency (western blot) (wtSOD1 [1]; 1:1 or 1:3 cross-linker to protein): most efficient cross-linker
Compound: O=C1C=CC(=O)N1CCN(CCN1C(=O)C=CC1=O)CCN1C(=O)C=CC1=O [TMEA, Tris[2-maleimidoethyl]-amione]
- SOD1 dimer formation by cross-linking (western blot) (wtSOD1 [1]): resulted in the stabilization of SOD1 dimer

Compound: NNc1ccccc1 [phenylhydrazine]
- LD50 (human): 80 mg/kg

Compound: copper and zinc
- SOD1 activity on addition of the substance (wtSOD1 [3]; zinc): unaffected; also recorded: unchanged
- SOD1 activity on addition of the substance (G85R SOD1 [4]): increases
- SOD1 activity on addition of the substance (G93A SOD1 [5]): unaffected
- stabilization by excess copper and zinc alone (G85R SOD1 [8]): ~20 °C
- effect of excess copper and zinc on stability (G93A SOD1 [9]): no affect; also recorded: little effect
